Columns and labels:
human CD3+ T cells = tested on: human CD3+ T cells
Experimental: Freshly prepared and purified human CD3^+ T cells were prepared from healthy donor peripheral blood. 20,000 T cells were loaded into the upper chamber of the Transwell in control, chemotactic or fugetactic settings with AMD3100 at concentrations between 0.1 μM and 10 μM. Migrated cells were counted in the lower chamber and migration quantitated as previously described. Vianello et al. The Journal of Immunology, 2006, 176: 2902-2914; Righi et al., Cancer Res.; 71(16): 5522-34, each of which is incorporated herein in its entirety.
All wells were run in triplicate.

human CD3 T cells = conditions: T cells incubated with 0.01 μM to 10 mM AMD3100 before addition to the chamber; harvest after 3 h
Experimental: For quantitative transmigration assays, purified human CD3′ T cells (approximately 2×10^4 cells) are added to the upper chamber of a Transwell®, insert in each well, to a total volume of 150 μl of Iscove's modified medium.
To determine the anti-fugetactic concentration of AMD3100, the T cells are incubated with 0.01 μM to 10 mM AMD3100 prior to addition to the chamber.
Cells are harvested from the lower chamber after 3 h, and cell counts are performed using a hemocytometer.

In the case of `c1cc(CN2CCCNCCNCCCNCC2)ccc1CN1CCCNCCNCCCNCC1` [AMD3100], the “effect on human T cell chemotaxis” value (human CD3+ T cells; FIG. 1, AMD3100 0.1 μM to 10 μM) is reported as “bimodal effect”, the “effect on human T cell fugetaxis” value (human CD3+ T cells; FIG. 2, AMD3100 0.1 μM to 10 μM, antifugetactic properties observed in a specific range) is reported as “bimodal effect” and the “chemotactic index (CI), chemotactic response” value (human CD3+ T cells; chemotactic setting, AMD3100 at 1 μM, CI of 1.0 is the control, FIG. 1, triplicate wells) is reported as 2.3. The “chemotactic index (CI), fugetactic response” value (human CD3+ T cells; fugetactic setting, AMD3100 at 0.1 μM, CI of 1.0 is the control, FIG. 2, triplicate wells) was 1.6 and the “effect on T cell migration (anti-fugetactic at lower, fugetactic at higher concentrations)” value (human CD3 T cells) was “bimodal effect”.
